Like-named read-outs stand apart in the source and are kept apart here.
Legend:
HIV‐1 [HE] = test: Anti-HIV activity, HIV-1 in wild-type CEM/0 cells; type: cell-based; details: wild-type CEM/0 cells, mean ±SD n = 2–3, read-out: Antiviral activity CEM/0 HIV‐1 [HE] EC50
HIV‐2 [ROD] = test: Anti-HIV activity, HIV-2 in wild-type CEM/0 cells; type: cell-based; details: wild-type CEM/0 cells, mean ±SD n = 2–3, read-out: Antiviral activity CEM/0 HIV‐2 [ROD] EC50
Method: (§1) Part 9. Anti-HIV activity assay.
(§2) The produce was used as previously reported. 5 Inhibition of HIV-1(IIIB)- and HIV-2(ROD)-induced cytopathogenicity in wild-type CEM/0 and thymidine kinase-deficient CEM/TK– cell cultures was measured in […]
(§3) containing appropriate dilutions of the test compounds. After 4−5 days of incubation at 37 °C in a CO2-controlled humidified atmosphere, CEM giant (syncytium) cell formation was examined microscopically. The […]
(§4) giant cell formation by 50%.
(§5) Part 10. Primer-extension assays. […]

HIV‐2 [ROD)] = test: Anti-HIV activity, HIV-2 in thymidine kinase-deficient CEM/TK^− cells; type: cell-based
Method: as §1, §2, §3, §4, §5

CEM/0 = test: in vitro; details: read-out: Toxicity CEM/0 CC50; 50% cytostatic concentration, CEM proliferation
Method: (§6) All TriPPPro‐compounds 10 and 20, as well as their parent nucleosides and the corresponding NTPs, were evaluated for their antiviral activity (expressed as EC50 values) against HIV‐1 (wild‐type CEM/0 cells) and HIV‐2 (wild‐type CEM/0 cells and thymidine kinase‐deficient (CEM/TK^−) cells) with concomitant determination of cytotoxicity in the same cell line (Table 3 ).

[1] = Chemical hydrolysis in phosphate buffer saline (PBS, pH 7.3); type: physicochemical; details: PBS pH 7.3, 37 °C, read-out: PBS pH 7.3 t 1/2 (converted)
Method: (§7) Part 4. Chemical Hydrolysis of TriPPPro-compounds 10 and 20.
Second prepare 1.9 mM hydrolysis […]
(§8) Then, aliquots of 50 µL human

in vitro [2] = details: human
Method: The hydrolysis properties of TriPPPro‐compounds 10 and 20 were evaluated in phosphate buffer saline (PBS, pH 7.3), pig liver esterase (PLE) or CEM/0 cell extracts. In both cases, hydrolysis products were analyzed by means of analytical RP18‐HPLC and the hydrolysis half‐lives (Table 1 , t1/2 ) of TriPPPro‐compounds 10 and 20 were calculated after complete consumption of the starting materials.
The hydrolysis of TriPPPro‐compounds 10 and 20 was carried out with CEM/0 cell extracts as well. […]
Part 6. Enzyme-Catalyzed Hydrolysis of TriPPPro-compounds 10 and 20 in CEM Cell […]
First prepare 3.0 mM hydrolysis solutions of Tri PPPro-compounds 10 and 20 in DMSO and H2O: 21 µL stock solution (50 mM in DMSO) and 154 µL DMSO, and 175 µL Milli-Q water. Three-twelve different samples (20 µL 3.0 mM hydrolysis solutions) were prepared in 2 mL Eppendorf® vials. Then, aliquots of 50 µL human CEM cell extracts were added to these samples and the reaction was started. The samples were incubated at 37 °C in a thermomixer for different time periods. The reaction was stopped by addition of 150 µL MeOH and kept on ice for 5 min. After centrifugation at 14,000 rpm for 12 min, the supernatants were filtered (Chromafil RC-20/15 MS, 0.2 μm) and stored in liquid nitrogen. When testing, aliquots of 60 µL (injection volume) were analyzed by analytical HPLC (HPLC Method). The calculation of t1/2 was obtained using Origin again.
(§9) Part 7. Hydrolysis of TriPPPro-compounds 10 and 20 in human plasma.
µL 3.0 mM hydrolysis solutions) were prepared in 2 mL Eppendorf® vials.

pig liver esterase (PLE) = test: Hydrolysis with pig liver esterase (PLE); type: in vitro ADME; details: pig liver esterase (PLE) in PBS, PLE in PBS pH 7.3, 37 °C, read-out: PLE t 1/2 (converted)
Text: Next, TriPPPro‐compounds 10 and 20 were exposed to PLE in PBS (pH 7.3) and the half‐lives of TriPPPro‐compounds 10 and 20 are listed in Table 1. […] In contrast, the cleavage of the AB (C4) masking group in TriPPPro‐compounds 10by–hy and 10bz–hz was triggered by ester hydrolysis and yielded the corresponding γ‐alkylated nucleoside triphosphate derivatives 20 (Figure 3B,D) and 21 (Figures S17 and S18, Supporting Information), respectively. […] Moreover, a very small amount of NDPs was observed, probably due to a reaction involving a nucleophilic reaction at the γ‐phosphate or γ‐phosphonate moiety (pathways d and f, Scheme 5). […]
as §7
Second prepare 1.9 mM hydrolysis
Part 5. Hydrolysis of TriPPPro-compounds 10 and 20 with PLE .
Second, 125 µL DMSO and 833 µL
62.5 µL of PLE solution in PBS (100
mixture was stored in the freezer (- 30 °C).
by analytical HPLC (HPLC Method).
similar to that for the chemical hydrolysis studies. […]
as §8

in vitro [3] = details: human, plasma
Method: First prepare 50 mM solutions of TriPPPro-compounds 10 and 20 in DMSO. […]
First prepare 3.0 mM hydrolysis solutions of Tri PPPro-compounds 10 and 20 in DMSO and H2O: 21 µL stock solution (50 mM in DMSO) and 154 µL DMSO, and 175 µL Milli-Q water. Three-twelve different samples (20 […]
The calculation of t1/2 was obtained using Origin again.
as §9
µL 3.0 mM hydrolysis solutions) were prepared in 2 mL Eppendorf® vials. Then, aliquots of 50 µL human Plasma (Heparin or Citrate) were added to these samples and the reaction was started. The samples were […]
incubated at 37 °C in a thermomixer for different time periods. The reaction was stopped by addition of 150 µL MeOH and kept on ice for 5 min. After centrifugation at 14,000 rpm for 22 min, the supernatants were filtered (Chromafil RC-20/15 MS, 0.2 μm) and stored in liquid nitrogen. When testing, aliquots of 25 0r 30 µL (injection volume) were analyzed by analytical HPLC (HPLC Method). The calculation of t1/2 was obtained using Origin […]
Part 8. Preparation of cell extracts and human plasma. […]

in vitro [4] = details: human, CEM/0 cells (wild-type CD4+ T-cells)
Method: as §6

[5] = thymidine kinase-deficient CEM/TK^− cells, mean ±SD n = 2–3; read-out: Antiviral activity CEM/TK^− HIV‐2 [ROD)] EC50
[6] = Human immunodeficiency virus 1, CCRF-CEM
[7] = Human immunodeficiency virus 2, CCRF-CEM
[8] = Human immunodeficiency virus 2, CEM-TK(-), thymidine kinase-deficient CEM/TK^− cells, mean ±SD n = 2–3; read-out: Antiviral activity CEM/TK^− HIV‐2 [ROD)] EC50
[9] = t 1/2 in human plasma (over heparin and citrate plasma)

Row | EC50 (HIV‐1 [HE]) [nM] | EC50 (HIV‐2 [ROD]) [nM] | EC50 (HIV‐2 [ROD)]; [5]) [nM] | half-life at 1.9 mM [1] [days] | half-life at 0.86 mM (in vitro [2]) [h] | half-life at 0.45 mM (pig liver esterase (PLE)) [h] | half-life at 0.86 mM (in vitro [3]; Plasma (Citrate) t 1/2) [h] | half-life at 0.86 mM (in vitro [3]; Plasma (Heparin) t 1/2) [h] | EC50 (HIV‐1 [HE]; [6]) [nM] | EC50 (HIV‐2 [ROD]; [7]) [nM] | EC50 (HIV‐2 [ROD)]; [8]) [nM] | half-life at 0.86 mM (in vitro [3]; [9]) [h] | Compound | CC50 (CEM/0) [nM] | CC50 (in vitro [4]) [nM]
1 | 28 ± 15 | 43 ± 40 | 25 ± 27 |  |  |  |  |  |  |  |  |  | Nc1nc(=O)n([C@@H]2CS[C@H](COP(=O)(O)OP(=O)(O)OP(=O)(O)O)O2)cc1F [FTCTP, reference compound] | > 100000 | 
2 | 4730 ± 3050 | 5640 ± 4450 | > 100000 |  |  |  |  |  |  |  |  |  | O=c1[nH]c(=O)n([C@H]2C[C@H](O)[C@@H](COP(=O)(O)OP(=O)(O)OP(=O)(O)O)O2)cc1/C=C/Br [BVDUTP, reference compound] | > 100000 | 
3 | 7.6 ± 9.1 | 18 ± 9 | 4920 ± 2430 |  |  |  |  |  |  |  |  |  | Cc1cn([C@H]2C[C@H](F)[C@@H](COP(=O)(O)OP(=O)(O)OP(=O)(O)O)O2)c(=O)[nH]c1=O [FLTTP, reference compound] | > 100000 | 

Second part, the molecule before the results:

Row | Compound | EC50 (HIV‐1 [HE]) [nM] | EC50 (HIV‐2 [ROD]) [nM] | EC50 (HIV‐2 [ROD)]; [5]) [nM] | half-life at 1.9 mM [1] [days] | half-life at 0.86 mM (in vitro [2]) [h] | half-life at 0.45 mM (pig liver esterase (PLE)) [h] | half-life at 0.86 mM (in vitro [3]; Plasma (Citrate) t 1/2) [h] | half-life at 0.86 mM (in vitro [3]; Plasma (Heparin) t 1/2) [h] | EC50 (HIV‐1 [HE]; [6]) [nM] | EC50 (HIV‐2 [ROD]; [7]) [nM] | EC50 (HIV‐2 [ROD)]; [8]) [nM] | half-life at 0.86 mM (in vitro [3]; [9]) [h] | CC50 (CEM/0) [nM] | CC50 (in vitro [4]) [nM]
4 | CCCCCCCCCCCCCCCCCCOP(=O)(O)OP(=O)(O)OP(=O)(O)OC[C@@H]1C=C[C@H](n2cnc3c(NC4CC4)nc(N)nc32)C1 [20h, γ‐C18‐ABCTP] |  |  |  | > 83.3 | > 10 | > 150 | > 20 | 4.8 | 260 ± 130 | 420 ± 110 | 160 ± 160 |  |  | > 100000
5 | CCCCCCCCCCCCCCCCCCP(=O)(OCc1ccc(OC(=O)CCCC)cc1)OP(=O)(O)OP(=O)(O)OC[C@H]1O[C@@H](n2cc(C)c(=O)[nH]c2=O)C[C@@H]1N=[N+]=[N-] (some centres unmarked) [10bz, γ‐(AB‐C4)‐γ‐C‐(alkyl‐C18)‐AZTTP] |  |  |  | 41 | 8 | 0.25 | 4.4 | 7.6 | 150 ± 150 | 7.5 ± 8.1 | 310 ± 26 | 4.4 to 7.6 |  | 58900
6 | CCCCCCCCCCCCCCCCCCOP(=O)(OCCCC)OP(=O)(O)OP(=O)(O)OC[C@H]1O[C@@H](n2cc(C)c(=O)[nH]c2=O)C[C@@H]1N=[N+]=[N-] (some centres unmarked) [10bv, γ‐(alkyl‐C4;alkyl‐C18)‐AZTTP] |  |  |  | > 83.3 | > 30 | > 150 | > 20 | > 20 | 41 ± 19 | 26 ± 7 | 290 ± 150 | > 8 |  | 64900
